Test results taken from the supplement of paper PMC11368000.

Legend:
Conditions in all cases: exposure time: 90 min
30145 [1] = donor line of iPSC-derived cardiomyocytes; assay: POD (EC05) for increase in beat frequency (positive chronotrope) vs vehicle; higher = less potent (higher point of departure)
How it was run: (§1)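 Cardiomyocytes derived from human iPSCs of 16 donors were grown 14 days in gelatin-coated 384-well plates, loaded 2 h with a fluorescent Ca2+ dye, then exposed for 90 min at 37 °C to final concentrations of 0.1, 1, 10 and 100 µM in 0.5% DMSO. A FLIPR Tetra recorded Ca2+ flux at 8 frames/s for 100 s before and after exposure. Points of departure for each donor were derived by hierarchical Bayesian Hill fitting of vehicle-normalised beat frequency, decay-to-rise ratio or peak frequency. The thresholds applied were a 5% change, or a 95% loss for peak frequency.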

1434 [2] = donor line of iPSC-derived cardiomyocytes; assay: POD (EC05) for decrease in beat frequency (negative chronotrope) vs vehicle; higher = less potent (higher point of departure)
How it was run: as §1

1083 [3] = donor line of iPSC-derived cardiomyocytes; assay: as above
How it was run: as §1

1392 [4] = donor line of iPSC-derived cardiomyocytes; assay: as above
How it was run: as §1

1531 = donor line of iPSC-derived cardiomyocytes; assay: POD (EC05) for increase in Ca2+ transient decay-to-rise ratio (QT prolongation) vs vehicle; higher = less potent (higher point of departure)
Experimental: (§2)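 Human iPSC-derived cardiomyocytes from 16 donors were exposed for 90 min at 37 °C to each PFAS at 0.1, 1, 10 and 100 µM in 0.5% DMSO, 384-well plates. Kinetic Ca2+ flux (FLIPR) and Hoechst nuclei counts were normalised to vehicle wells and fitted with a hierarchical Bayesian Hill model to give donor-specific PODs: EC05 for beat-rate increase or decrease and for decay-to-rise ratio increase (QT proxy), EC95 for peak-frequency loss (asystole), EC10 for total cell number loss. 0.03 µM is the lower bound.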

11235 = donor line of iPSC-derived cardiomyocytes; assay: as above
Experimental: as §2

1535 = donor line of iPSC-derived cardiomyocytes; assay: as above
Experimental: as §2

30145 [5] = assay: as above
Experimental: as §2

30171 = donor line of iPSC-derived cardiomyocytes; assay: as above
Experimental: as §2

1434 [6] = assay: as above
Experimental: as §2

20032 = donor line of iPSC-derived cardiomyocytes; assay: as above
Experimental: as §2

1118 = donor line of iPSC-derived cardiomyocytes; assay: as above
Experimental: as §2

1309 = donor line of iPSC-derived cardiomyocytes; assay: as above
Experimental: as §2

1083 [7] = assay: as above
Experimental: as §2

1368 = donor line of iPSC-derived cardiomyocytes; assay: as above
Experimental: as §2

1392 [8] = assay: as above
Experimental: as §2

1565 = donor line of iPSC-derived cardiomyocytes; assay: as above
Experimental: as §2

1518 = donor line of iPSC-derived cardiomyocytes; assay: as above
Experimental: as §2

1516 = donor line of iPSC-derived cardiomyocytes; assay: as above
Experimental: as §2

20084 = donor line of iPSC-derived cardiomyocytes; assay: as above
Experimental: as §2

Measured: POD vs vehicle

OCC(O)CC(F)(F)C(F)(F)C(F)(F)C(F)(F)C(F)(F)C(F)(F)C(F)(F)C(F)(F)F (centres undefined) [1-(Perfluorofluorooctyl)propane-2,3-diol]
24.4 µM: 1083 [3]
> 100 µM: all other assays above

O=C(O)C(F)(F)C(F)(F)C(F)(F)F [Perfluorobutanoic_acid]
> 100 µM: all assays above

O=S(=O)(O)CCC(F)(F)C(F)(F)C(F)(F)C(F)(F)F [4:2 Fluorotelomer sulfonic acid]
not listed: 30145 [1]
> 100 µM: all other assays above

O=C(O)C(F)(F)C(F)(F)OC(F)(F)F [Perfluoro-3-methoxypropanoic_acid]
> 100 µM: all assays above

O=C(O)C(F)(F)C(F)(F)C(F)(F)C(F)(F)C(F)(F)C(F)(F)C(F)(F)C(F)(F)Cl [9-Chloro-perfluorononanoic_acid]
10.9 µM: 1434 [2]
> 100 µM: all other assays above
